The text below walks through data of patent publication US11207312B2, “Metallo-beta-lactamase inhibitors and methods of use thereof” (priority 2017, dated 2021).

One series deals with IMP-1 (Serratia marcescens, UniProt P52699). Put plainly: biochemical. The settings on record: CCF2-FA fluorescence assay, 2 hours at 25° C.; read-out: IMP1 IC50. In short, it runs like this: (§1)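 IC50s come from 4-parameter fits of inhibition versus inhibitor concentration, tested from 20 μM down to 0.00063 μM. Enzyme, CCF2-FA (1.25 μM) and inhibitor react 2 h at 25° C, pH 7, with 10 μM ZnSO4 and 0.005% Tween-20.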
Sequence of IMP-1 (P52699 whole entry, looked up, species assumed): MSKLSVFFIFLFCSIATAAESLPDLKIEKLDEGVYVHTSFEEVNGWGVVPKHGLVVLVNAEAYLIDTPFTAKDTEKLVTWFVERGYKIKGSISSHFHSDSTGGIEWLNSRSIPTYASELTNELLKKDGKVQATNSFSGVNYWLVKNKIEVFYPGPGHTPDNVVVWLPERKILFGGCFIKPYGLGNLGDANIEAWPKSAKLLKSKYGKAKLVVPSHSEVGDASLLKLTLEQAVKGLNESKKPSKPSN

The target of the next series is VIM-1 (Pseudomonas aeruginosa (strain ATCC 15692 / DSM 22644 / CIP 104116 / JCM 14847 / LMG 12228 / 1C / PRS 101 / PAO1), UniProt A0A0F7KYQ8). The series is described as follows: biochemical. The note with it: CCF2-FA fluorescence assay, 2 hours at 25° C.; read-out: VIM1 IC50. The procedure, abridged:
as §1

For series [1], the system named is Klebsiella pneumoniae expressing VIM-1 (IHMA599644). Format: cell-based. The settings on record: with imipenem 1 μg/ml; 95% inhibition of bacterial growth. The procedure, abridged: (§2)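 Clinical MBL-producing strains grown overnight at 35° C, diluted 1:100 into CAMHB, then exposed to test compound with imipenem at 1 μg/ml for 22–24 h at 35° C. Absorbance read-out; MITC95 is the lowest compound concentration giving 95% growth inhibition with imipenem.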

Series [2] relates to Escherichia coli expressing NDM-1 (CLB30016). Format: cell-based. The settings on record: with imipenem 1 μg/ml; 95% inhibition of bacterial growth. The procedure, abridged:
as §2

In series [3] the test system is Serratia marcescens expressing IMP-1 (CL5741). The class given is cell-based. The note with it: with imipenem 1 μg/ml; 95% inhibition of bacterial growth. In short, it runs like this: as §2
Series [4] concerns P. aeruginosa MB9799 (efflux-, IMP-1 plasmid). Format: cell-based, Pseudomonas aeruginosa. The settings on record: efflux − (MB9799) strain; imipenem at 2 μg/mL; in the presence of a class A, C, D serine β-lactamase inhibitor closely related to relebactam. In short, it runs like this: (§3)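 Isogenic P. aeruginosa PAO1 strains (efflux+ and multiple-efflux-pump-disrupted) carrying plasmid IMP-1, with inducible AmpC, tested by broth microdilution. Imipenem and/or ceftazidime fixed, usually at CLSI breakpoint, plus fixed class A/C β-lactamase inhibitor; titrated MBL inhibitor concentration restoring susceptibility recorded and compared between strains as efflux fold difference.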

In another series the target is VIM-2 (Escherichia coli, UniProt Q5U7L7). Put plainly: biochemical. The settings on record: CCF2-FA fluorescence assay; read-out: VIM2 IC50.
For a further series, the target named is NDM-1 (Klebsiella pneumoniae, UniProt C7C422). The series is described as follows: biochemical. The settings on record: CCF2-FA fluorescence assay, 2 hours at 25° C. The class given is biochemical. In short, it runs like this:
as §1

Series [5] has as its system P. aeruginosa MB9798 (efflux+, IMP-1 plasmid). The settings on record: for MB9798 MITC95 P. aeruginosa uM Efflux WT: efflux + (MB9798) strain, imipenem at 2 μg/mL, in the presence of a class A, C, D serine β-lactamase inhibitor closely related to relebactam; for Efflux ratio: fold difference between efflux+ (MB9798) and efflux− (MB9799) strains. In short, it runs like this:
as §3

Sequence of NDM-1 (C7C422 whole entry, looked up, species assumed): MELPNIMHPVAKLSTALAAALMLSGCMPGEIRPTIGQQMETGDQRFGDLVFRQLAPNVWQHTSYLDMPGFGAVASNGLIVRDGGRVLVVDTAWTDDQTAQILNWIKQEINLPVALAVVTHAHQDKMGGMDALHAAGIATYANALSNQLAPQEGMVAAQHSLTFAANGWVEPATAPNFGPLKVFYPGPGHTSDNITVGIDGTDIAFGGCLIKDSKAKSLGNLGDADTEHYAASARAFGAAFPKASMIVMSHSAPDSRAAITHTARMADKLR

`NS(=O)(=O)c1c(S(=O)(=O)N[C@@H]2CCNC2)ccc(N2CC(N3CCCCC3)C2)c1-c1nnn[nH]1` [Example 112, 4-(3-piperidin-1-ylazetidin-1-yl)-N1-[(3R)-pyrrolidin-3-yl]-3-(1H-tetrazol-5-yl)benzene-1,2-disulfonamide]: the IC50 on IMP-1 amounted to 15 nM; on VIM-1, 2.9 nM; on VIM-2 it was 16.6 nM; at NDM-1, 8.98 nM. For the same compound, the “IHMA599644 K. pneumoniae MITC95 VIM” value in [1] was 3.13 µM. The “CLB30016 E. coli MITC95 NDM” value in series [2] worked out at 0.78 µM. The “CL5741 S. marcescens MITC95 IMP” value in series [3] came out at 1.56 µM. In series [4], the “MB9799 MITC95 P. aeruginosa uM Efflux Mutant” value is 1.56 µM. For the same compound, the “MB9798 MITC95 P. aeruginosa uM Efflux WT” value in series [5] worked out at 50.00 µM. For the same compound, in [5], the Efflux ratio is given as 31.99.

For the compound `NC[C@@H](O)CNS(=O)(=O)c1ccc(N2CCC(NCCO)CC2)c(-c2nn[nH]n2)c1S(N)(=O)=O` [Example 142, (R)-N1-(3-amino-2-hydroxypropyl)-4-(4-((2-hydroxyethyl)amino)piperidin-1-yl)-3-(2H-tetrazol-5-yl)benzene-1,2-disulfonamide bis(2,2,2-trifluoroacetate)], the IC50 on IMP-1 was found to be 5.95 nM; on VIM-1, 0.42 nM; on VIM-2 it was 9.26 nM; at NDM-1, 7.59 nM. Further, the “IHMA599644 K. pneumoniae MITC95 VIM” value in series [1] was 1.56 µM. For the same compound, the “CLB30016 E. coli MITC95 NDM” value in series [2] is 0.39 µM. Moreover, the “CL5741 S. marcescens MITC95 IMP” value in series [3] came out at 0.78 µM. Also, in series [4], the “MB9799 MITC95 P. aeruginosa uM Efflux Mutant” value was determined as 0.78 µM. Moreover, the “MB9798 MITC95 P. aeruginosa uM Efflux WT” value in [5] is 0.78 µM. Besides, in series [5], the Efflux ratio amounted to 1.00.

For `NCCNS(=O)(=O)C1CCN(c2ccc(S(=O)(=O)N[C@@H]3CCNC3)c(S(N)(=O)=O)c2-c2nn[nH]n2)CC1` [Example 167, (R)-4-(4-(N-(2-aminoethyl)sulfamoyl)piperidin-1-yl)-N1-(pyrrolidin-3-yl)-3-(2H-tetrazol-5-yl)benzene-1,2-disulfonamide], the IC50 at IMP-1 turned out to be 0.25 nM; on VIM-1, 0.05 nM; at VIM-2, 0.4 nM; against NDM-1, 0.25 nM. Besides, the “IHMA599644 K. pneumoniae MITC95 VIM” value in [1] turned out to be 1.56 µM. The “CLB30016 E. coli MITC95 NDM” value in [2] came out at 1.17 µM. The “CL5741 S. marcescens MITC95 IMP” value in series [3] is 1.17 µM. Further, the “MB9799 MITC95 P. aeruginosa uM Efflux Mutant” value in series [4] was 0.78 µM. Besides, the “MB9798 MITC95 P. aeruginosa uM Efflux WT” value in series [5] amounted to 0.78 µM. In addition, in [5], the Efflux ratio came out at 1.00.

With `NC[C@H](N)CNS(=O)(=O)c1ccc(N2CCC(CO)CC2)c(-c2nnn[nH]2)c1S(N)(=O)=O` [Example 44, (S)-N1-(2,3-diaminopropyl)-4-(4-(hydroxymethyl)piperidin-1-yl)-3-(1H-tetrazol-5-yl)benzene-1,2-disulfonamide], the IC50 at IMP-1 is 0.56 nM; at VIM-1 it was 0.06 nM; at VIM-2 it was 0.63 nM; against NDM-1, 0.36 nM. Besides, the “IHMA599644 K. pneumoniae MITC95 VIM” value in series [1] is 6.25 µM. The “CLB30016 E. coli MITC95 NDM” value in [2] is 3.13 µM. Moreover, in series [3], the “CL5741 S. marcescens MITC95 IMP” value was determined as 3.13 µM. Besides, the “MB9799 MITC95 P. aeruginosa uM Efflux Mutant” value in [4] was 1.56 µM. Also, in series [5], the “MB9798 MITC95 P. aeruginosa uM Efflux WT” value was 3.13 µM. Further, the Efflux ratio in series [5] was determined as 2.00.

Consider `NCCC1CCCN(c2ccc(S(=O)(=O)NC[C@H](O)CN)c(S(N)(=O)=O)c2-c2nn[nH]n2)CC1` (stereo partly drawn) [Example 140, N1-((R)-3-amino-2-hydroxypropyl)-4-(4-(2-aminoethyl)azepan-1-yl)-3-(2H-tetrazol-5-yl)benzene-1,2-disulfonamide bis(2,2,2-trifluoroacetate)], for which the IC50 was 6.34 nM on IMP-1, 0.1 nM on VIM-1, 1.87 nM on VIM-2 and 3.75 nM against NDM-1. For the same compound, the “IHMA599644 K. pneumoniae MITC95 VIM” value in series [1] is 0.78 µM. In addition, the “CLB30016 E. coli MITC95 NDM” value in series [2] came to 1.56 µM. In series [3], the “CL5741 S. marcescens MITC95 IMP” value worked out at 0.78 µM. Also, the “MB9799 MITC95 P. aeruginosa uM Efflux Mutant” value in series [4] is 0.78 µM. In addition, the “MB9798 MITC95 P. aeruginosa uM Efflux WT” value in [5] was found to be 1.56 µM. In addition, in [5], the Efflux ratio was determined as 2.00.

Regarding `NCCN1CCN(c2ccc(S(=O)(=O)N[C@@H]3CCNC3)c(S(N)(=O)=O)c2-c2nnn[nH]2)CC1` [Example 76, 4-[4-(2-aminoethyl)piperazin-1-yl]-N1-[(3R)-pyrrolidin-3-yl]-3-(1H-tetrazol-5-yl)benzene-1,2-disulfonamide], the IC50 at IMP-1 was 10.7 nM; on VIM-1, 1.6 nM; on VIM-2 it was 18.1 nM; at NDM-1 it was 4.35 nM. Further, the “IHMA599644 K. pneumoniae MITC95 VIM” value in series [1] is 3.13 µM. Further, the “CLB30016 E. coli MITC95 NDM” value in series [2] came to 1.56 µM. Moreover, the “CL5741 S. marcescens MITC95 IMP” value in [3] came to 3.13 µM. Further, the “MB9799 MITC95 P. aeruginosa uM Efflux Mutant” value in series [4] stood at 1.56 µM. The “MB9798 MITC95 P. aeruginosa uM Efflux WT” value in [5] came out at 1.56 µM. Further, the Efflux ratio in series [5] came out at 1.00.

For `NS(=O)(=O)c1c(S(=O)(=O)N[C@@H]2CCNC2)ccc(N2CCNCC2)c1-c1nnn[nH]1` [Example 79, 4-piperazin-1-yl-N1-[(3R)-pyrrolidin-3-yl]-3-(1H-tetrazol-5-yl)benzene-1,2-disulfonamide], the IC50 at IMP-1 stood at 26.6 nM; at VIM-1 it was 8.6 nM; on VIM-2, 36.4 nM; against NDM-1 it was 9.35 nM. The “IHMA599644 K. pneumoniae MITC95 VIM” value in series [1] was 3.13 µM. In addition, the “CLB30016 E. coli MITC95 NDM” value in [2] came out at 0.39 µM. Moreover, the “CL5741 S. marcescens MITC95 IMP” value in series [3] worked out at 0.78 µM. The “MB9799 MITC95 P. aeruginosa uM Efflux Mutant” value in series [4] stood at 1.56 µM. Also, in series [5], the “MB9798 MITC95 P. aeruginosa uM Efflux WT” value was found to be 3.13 µM. The Efflux ratio in series [5] is 2.00.

Turning to `NCCNS(=O)(=O)c1ccc(N2CCN(CCCO)CC2)c(-c2nnn[nH]2)c1S(N)(=O)=O` [Example 41, N1-(2-aminoethyl)-4-(4-(3-hydroxypropyl)piperazin-1-yl)-3-(1H-tetrazol-5-yl)benzene-1,2-disulfonamide], the IC50 on IMP-1 was found to be 6.04 nM; on VIM-1 it was 11.5 nM; at VIM-2, 14.8 nM; against NDM-1, 5.98 nM. Further, the “IHMA599644 K. pneumoniae MITC95 VIM” value in series [1] amounted to 1.56 µM. In addition, in series [2], the “CLB30016 E. coli MITC95 NDM” value amounted to 0.10 µM. The “CL5741 S. marcescens MITC95 IMP” value in [3] was 0.10 µM. The “MB9799 MITC95 P. aeruginosa uM Efflux Mutant” value in series [4] was determined as 0.39 µM. Besides, the “MB9798 MITC95 P. aeruginosa uM Efflux WT” value in [5] came to 1.56 µM. In series [5], the Efflux ratio is 4.00.

`NC[C@@H](O)CNS(=O)(=O)c1ccc(N2CCC(CO)CC2)c(-c2nnn[nH]2)c1S(N)(=O)=O` [Example 42, (R)-N1-(3-amino-2-hydroxypropyl)-4-(4-(hydroxymethyl)piperidin-1-yl)-3-(1H-tetrazol-5-yl)benzene-1,2-disulfonamide]: the IC50 on IMP-1 was 0.47 nM; on VIM-1, 0.16 nM; at VIM-2, 0.71 nM; against NDM-1, 0.45 nM. Moreover, in [1], the “IHMA599644 K. pneumoniae MITC95 VIM” value amounted to 6.25 µM. Moreover, the “CLB30016 E. coli MITC95 NDM” value in series [2] was found to be 3.13 µM. Further, the “CL5741 S. marcescens MITC95 IMP” value in series [3] came to 3.13 µM. For the same compound, the “MB9799 MITC95 P. aeruginosa uM Efflux Mutant” value in series [4] came to 1.56 µM. Moreover, the “MB9798 MITC95 P. aeruginosa uM Efflux WT” value in series [5] is 1.56 µM. The Efflux ratio in series [5] was found to be 1.00.

As for `NCC=C1CCCN(c2ccc(S(=O)(=O)NC[C@H](O)CN)c(S(N)(=O)=O)c2-c2nn[nH]n2)C1` (single isomer, unassigned; isomer a) [Example 205], the IC50 at IMP-1 was determined as 19.7 nM; on VIM-1, 0.34 nM; at VIM-2, 1.07 nM; against NDM-1, 7.59 nM. Moreover, the “IHMA599644 K. pneumoniae MITC95 VIM” value in [1] was 1.56 µM. Further, the “CLB30016 E. coli MITC95 NDM” value in series [2] worked out at 0.78 µM. Besides, in [3], the “CL5741 S. marcescens MITC95 IMP” value was 1.56 µM. In addition, in [4], the “MB9799 MITC95 P. aeruginosa uM Efflux Mutant” value turned out to be 1.56 µM. In series [5], the “MB9798 MITC95 P. aeruginosa uM Efflux WT” value was 12.50 µM. In addition, the Efflux ratio in series [5] was determined as 8.00.

One may read the IC50 as the midpoint of a concentration-inhibition curve.
